A short description of data set [1]: Treatment of PVCs in a patient with lithium carbonate in combination with metoprolol (cardiac event monitor / EKG). Type of data set: in vivo, human. As to conditions: lithium carbonate 300 mg per day (150 mg BID) in combination with metoprolol 150 mg per day. The source says:
Trial 1 was started on Aug. 23, 2019 and stopped on Jan. 1, 2020; Trial 2 was started on Jan. 12, 2020 and stopped on Apr. 21, 2020; and Trial 3 was started on May 8, 2020 and was ongoing at the time the instant application was filed.
The first trial was 109 days. The second trial was 43 days.

The conditions of data set [2]: patient; lithium carbonate 300 mg per day (Li2CO3 150 mg BID).

Each structure is given as a SMILES string.

In the case of `O=C([O-])[O-].[Li+].[Li+]` [lithium carbonate], the “PVCs reduced, each of three trials” value in data set [1] (each trial, for the duration of treatment with lithium) is given as “at least 90%”. The “PVCs reduced (reduction of PVCs)” value in data set [1] (within a few days, for the duration of lithium treatment) is on record as “about 90%”. Further, the lithium serum level entry in data set [2] is listed as “about 0.2”.

For the origin of these results see patent US12156885B2, “Methods and compositions for treating heart conditions” (priority 2020, dated 2024).
